Measured values reported in PMC4854023, “Orthology Analysis and In Vivo Complementation Studies to Elucidate the Role of DIR1 during Systemic Acquired Resistance in Arabidopsis thaliana and Cucumis sativus” (Frontiers in Plant Science, 2016).

Key:
[1] = molecular target: T1, CsDIR1 (Cucumis sativus, UniProt A0A0A0K4Q7); assay: TNS fluorescence displacement; assay type: binding; conditions: 16 uM ligand; TNS 5 uM (methods) or 3 uM; pH 7 buffer; in cavity or allosteric
T1 construct: gene Csa_7G372360; Rosetta Gami E. coli; S-Tag thrombin purification; His-tagged
T1 sequence (A0A0A0K4Q7 25-103): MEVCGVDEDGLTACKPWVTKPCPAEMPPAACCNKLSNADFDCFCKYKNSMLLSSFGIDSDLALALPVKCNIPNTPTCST

[2] = molecular target: T2, CsDIR2 (Cucumis sativus, UniProt A0A0A0KZ41); assay: TNS fluorescence displacement; assay type: binding; conditions: 16 uM ligand; TNS 5 uM (methods) or 3 uM; pH 7 buffer; in cavity or allosteric
T2 construct: gene Csa_4G017140; Rosetta Gami E. coli; S-Tag thrombin purification; His-tagged
T2 sequence (A0A0A0KZ41 26-101): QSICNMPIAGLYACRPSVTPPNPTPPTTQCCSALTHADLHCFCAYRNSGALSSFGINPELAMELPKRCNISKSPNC

O=C(O)[C@@H]1CCCCN1 [Pip]
% lower TNS fluorescence than MES control [1]: ~ 25%

O=C(O)CCCCCCCC(=O)O [AzA]
% lower TNS fluorescence than MES control [2]: ~ 30%
% lower TNS fluorescence than MES control [1]: ~ 25%
